Results reported in ChEMBL document CHEMBL1134870, “Design and synthesis of novel inhibitors of gelatinase B” (Bioorg Med Chem Lett, 2002).

These compounds were tested against Matrix metalloproteinase-9 (Mus musculus) (UniProt P41245) (assay: Inhibitory activity against murine gelatinase B at 5 mM was determined).
Chain of Matrix metalloproteinase-9 (Mus musculus) (P41245 whole entry): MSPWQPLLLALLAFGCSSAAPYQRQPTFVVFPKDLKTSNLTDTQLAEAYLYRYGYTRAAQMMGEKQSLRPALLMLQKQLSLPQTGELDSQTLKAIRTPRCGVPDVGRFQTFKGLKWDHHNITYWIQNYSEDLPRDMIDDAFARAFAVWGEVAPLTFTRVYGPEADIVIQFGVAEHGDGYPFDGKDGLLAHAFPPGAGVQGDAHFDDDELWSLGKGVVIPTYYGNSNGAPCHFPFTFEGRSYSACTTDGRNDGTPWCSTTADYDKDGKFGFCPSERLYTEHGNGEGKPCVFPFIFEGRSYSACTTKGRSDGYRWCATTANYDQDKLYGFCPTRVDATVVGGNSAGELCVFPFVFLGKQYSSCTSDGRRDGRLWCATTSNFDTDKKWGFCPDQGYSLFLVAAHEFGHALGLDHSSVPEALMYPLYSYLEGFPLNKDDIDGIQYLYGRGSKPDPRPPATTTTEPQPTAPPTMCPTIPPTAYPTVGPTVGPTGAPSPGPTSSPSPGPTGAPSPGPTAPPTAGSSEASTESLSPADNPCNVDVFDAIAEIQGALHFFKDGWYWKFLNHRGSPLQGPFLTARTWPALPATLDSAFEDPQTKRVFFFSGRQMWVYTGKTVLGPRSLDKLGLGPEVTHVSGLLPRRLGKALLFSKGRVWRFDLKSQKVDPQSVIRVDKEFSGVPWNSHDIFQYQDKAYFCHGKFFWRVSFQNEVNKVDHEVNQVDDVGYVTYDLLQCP
`CCNCCN` was tested, and the inhibition was < 5%. For `CC(=O)NO`, the inhibition was < 5%. In the case of `NCCc1ccccn1`, the inhibition is reported as < 5%. For `CC(=O)Nc1nc(C)cs1`, the inhibition was < 5%. `NCc1nc2ccccc2[nH]1` gave an inhibition of 65%. In the case of `NCc1ccccn1`, the inhibition is reported as 75%. In the case of `NCCNCCN`, the inhibition is reported as < 5%. For `Oc1ccccn1`, the inhibition was < 5%. For `O=C(O)c1ccccc1`, the inhibition was < 5%. With `Nc1ccccc1N` the inhibition was 10%. `OCc1nc2ccccc2s1` gave an inhibition of 85%. For `NCCN`, the inhibition was < 5%. Work on `OCc1nc2ccccc2[nH]1` yielded an inhibition of 26%. `CC(=O)C1CCCC1=O` (centres undefined) gave an inhibition of 76%.

The compounds below were run against Matrix metalloproteinase-9 (Mus musculus, UniProt P41245) (assay: Inhibitory concentration was determined against murine gelatinase B).
Chain of Matrix metalloproteinase-9 (P41245 whole entry): as above
In the case of `OCc1nc2cc(NCc3ccccc3OCc3ccccc3)ccc2[nH]1`, the IC50 is reported as > 100 µM. For `NCc1nc2cc(NC(=O)/C=C/c3cccnc3)ccc2[nH]1`, the IC50 was 85 µM. `NCc1nc2ccc(NCc3ccccc3Sc3ccccc3)cc2[nH]1` was tested, and the IC50 was 56 µM. In the case of `CC(=O)N(Cc1ccccc1OCc1ccccc1)c1ccc2nc(CN)[nH]c2c1`, the IC50 is reported as 83 µM. `NCc1nc2cc(NC(=O)/C=C/c3c(F)cccc3F)ccc2[nH]1` gave an IC50 of 75 µM. With `NCc1nc2cc(N)ccc2[nH]1` the IC50 was > 500 µM. For `CC(=O)NCc1nc2ccc(NCc3ccccc3OCc3ccccc3)cc2[nH]1`, the IC50 was > 100 µM. For `Cc1nc2cc(NCc3ccccc3OCc3ccccc3)ccc2[nH]1`, the IC50 was > 300 µM. For `NCc1nc2ccc(NC(=O)c3ccccc3OCc3ccccc3)cc2[nH]1`, the IC50 was 48 µM. `NCc1cc2cc(NCc3ccccc3OCc3ccccc3)ccc2[nH]1` was tested, and the IC50 was 72 µM. Compound `NCc1nc2ccc(NCc3ccc(OCc4ccccc4)cc3)cc2[nH]1` has an IC50 of 51 µM. `NCc1nc2ccc(NCC3CC=CCC3)cc2[nH]1` (centres undefined) gave an IC50 of 92 µM. With `NCc1nc2ccc(NC(=O)c3ccc(C(=O)c4ccccc4)cc3)cc2[nH]1` the IC50 was 46 µM. `NCc1nc2ccc(NCc3ccccc3OCc3ccccc3)cc2[nH]1` gave an IC50 of 13 µM. Work on `NCc1nc2ccc(NCc3ccccc3)cc2[nH]1` yielded an IC50 of 195 µM.
